Data as given in ChEMBL document CHEMBL3885881, “DrugMatrix”.

Species on record: Rattus norvegicus
Assay: DrugMatrix - Regimen: Daily Repeat
Format: toxicity, organism-based, Sprague-Dawley
Set-up: regimen Daily Repeat, gender Male, age 6-8 weeks
Conditions: in vivo, po, route oral GAVAGE, vehicle .5 % CMC; for ABSOLUTE BASOPHIL / ABSOLUTE EOSINOPHIL / ABSOLUTE LYMPHOCYTE / ABSOLUTE MONOCYTE / ABSOLUTE SEGMENTED NEUTROPHIL / BASOPHIL / EOSINOPHIL / ERYTHROCYTE COUNT / HEMATOCRIT / HEMOGLOBIN / LEUKOCYTE COUNT / LYMPHOCYTE / MEAN CORPUSCULAR HEMOGLOBIN / MEAN CORPUSCULAR HEMOGLOBIN CONCENTRATION / MEAN CORPUSCULAR VOLUME / MONOCYTE / NEUTROPHIL / NUCLEATED RED BLOOD CELLS / PLATELET COUNT: tissue Blood; for ALANINE AMINOTRANSFERASE / ALBUMIN / ALKALINE PHOSPHATASE / ASPARTATE AMINOTRANSFERASE / BLOOD UREA NITROGEN / CARBON DIOXIDE / CHLORIDE / CHOLESTEROL / CREATINE PHOSPHOKINASE / CREATININE / GLUCOSE / LACTATE DEHYDROGENASE / LIPASE / PHOSPHORUS / POTASSIUM / SODIUM / TOTAL BILIRUBIN / TOTAL PROTEIN / URIC ACID: tissue Plasma
[1] = 0 mg/kg, 72 h, dose level Control, time 3 day
[2] = 0 mg/kg, 120 h, dose level Control, time 5 day
[3] = […], 72 h, dose 0.83 mg/Kg, dose level Low, time 3 day
[4] = […], 120 h, dose 0.83 mg/Kg, dose level Low, time 5 day

C[C@]12CC[C@@H]3c4ccc(O)cc4CC[C@H]3[C@@H]1C[C@@H](O)[C@@H]2O [ESTRIOL]
ABSOLUTE BASOPHIL [1]: 0 CELLS/uL
ABSOLUTE EOSINOPHIL [1]: 171.33 CELLS/uL
ABSOLUTE LYMPHOCYTE [1]: 13776.5 CELLS/uL
ABSOLUTE MONOCYTE [1]: 180.83 CELLS/uL
ABSOLUTE SEGMENTED NEUTROPHIL [1]: 1121.33 CELLS/uL
BASOPHIL [1]: 0%
EOSINOPHIL [1]: 1%
ERYTHROCYTE COUNT [1]: 5.56 x10E6/uL
HEMATOCRIT [1]: 34.75%
HEMOGLOBIN [1]: 13.68 G/DL
LEUKOCYTE COUNT [1]: 15.25 x10E3/uL
LYMPHOCYTE [1]: 90.17%
MEAN CORPUSCULAR HEMOGLOBIN [1]: 24.6 pg
MEAN CORPUSCULAR HEMOGLOBIN CONCENTRATION [1]: 39.4 G/DL
MEAN CORPUSCULAR VOLUME [1]: 62.48 fL
MONOCYTE [1]: 1.17%
NEUTROPHIL [1]: 7.67%
NUCLEATED RED BLOOD CELLS [1]: 0 /100WBC
PLATELET COUNT [1]: 1342 x10E3/uL
ALANINE AMINOTRANSFERASE [1]: 49.67 u/L
ALBUMIN [1]: 4.15 G/DL
ALKALINE PHOSPHATASE [1]: 346.83 u/L
ASPARTATE AMINOTRANSFERASE [1]: 108.17 u/L
BLOOD UREA NITROGEN [1]: 17.33 mg/dL
CARBON DIOXIDE [1]: 25 mmol/L
CHLORIDE [1]: 100.83 MEQ/L
CHOLESTEROL [1]: 66.83 mg/dL
CREATINE PHOSPHOKINASE [1]: 788 u/L
CREATININE [1]: 0.18 mg/dL
GLUCOSE [1]: 151.67 mg/dL
LACTATE DEHYDROGENASE [1]: 982.5 u/L
LIPASE [1]: 10.33 u/L
PHOSPHORUS [1]: 11.23 mg/dL
POTASSIUM [1]: 6.37 MEQ/L
SODIUM [1]: 141.02 MEQ/L
TOTAL BILIRUBIN [1]: 0.18 mg/dL
TOTAL PROTEIN [1]: 5.9 G/DL
URIC ACID [1]: 1.8 mg/dL
ABSOLUTE BASOPHIL [2]: 0 CELLS/uL
ABSOLUTE EOSINOPHIL [2]: 69 CELLS/uL
ABSOLUTE LYMPHOCYTE [2]: 13632.83 CELLS/uL
ABSOLUTE MONOCYTE [2]: 139.83 CELLS/uL
ABSOLUTE SEGMENTED NEUTROPHIL [2]: 1225 CELLS/uL
BASOPHIL [2]: 0%
EOSINOPHIL [2]: 0.33%
ERYTHROCYTE COUNT [2]: 5.52 x10E6/uL
HEMATOCRIT [2]: 33.98%
HEMOGLOBIN [2]: 13.22 G/DL
LEUKOCYTE COUNT [2]: 15.07 x10E3/uL
LYMPHOCYTE [2]: 90.83%
MEAN CORPUSCULAR HEMOGLOBIN [2]: 23.95 pg
MEAN CORPUSCULAR HEMOGLOBIN CONCENTRATION [2]: 38.9 G/DL
MEAN CORPUSCULAR VOLUME [2]: 61.53 fL
MONOCYTE [2]: 0.83%
NEUTROPHIL [2]: 8%
NUCLEATED RED BLOOD CELLS [2]: 0 /100WBC
PLATELET COUNT [2]: 1196 x10E3/uL
ALANINE AMINOTRANSFERASE [2]: 49.17 u/L
ALBUMIN [2]: 4.2 G/DL
ALKALINE PHOSPHATASE [2]: 352.33 u/L
ASPARTATE AMINOTRANSFERASE [2]: 89.67 u/L
BLOOD UREA NITROGEN [2]: 18 mg/dL
CARBON DIOXIDE [2]: 27.67 mmol/L
CHLORIDE [2]: 101 MEQ/L
CHOLESTEROL [2]: 72.83 mg/dL
CREATINE PHOSPHOKINASE [2]: 417.5 u/L
CREATININE [2]: 0.18 mg/dL
GLUCOSE [2]: 150.5 mg/dL
LACTATE DEHYDROGENASE [2]: 517.33 u/L
LIPASE [2]: 9 u/L
PHOSPHORUS [2]: 11.87 mg/dL
POTASSIUM [2]: 6.57 MEQ/L
SODIUM [2]: 143.62 MEQ/L
TOTAL BILIRUBIN [2]: 0.2 mg/dL
TOTAL PROTEIN [2]: 6.08 G/DL
URIC ACID [2]: 1.45 mg/dL
ABSOLUTE BASOPHIL [3]: 0 CELLS/uL
ABSOLUTE EOSINOPHIL [3]: 41 CELLS/uL
ABSOLUTE LYMPHOCYTE [3]: 11813.33 CELLS/uL
ABSOLUTE MONOCYTE [3]: 115.33 CELLS/uL
ABSOLUTE SEGMENTED NEUTROPHIL [3]: 930.33 CELLS/uL
BASOPHIL [3]: 0%
EOSINOPHIL [3]: 0.33%
ERYTHROCYTE COUNT [3]: 5.37 x10E6/uL
HEMATOCRIT [3]: 33.8%
HEMOGLOBIN [3]: 13.17 G/DL
LEUKOCYTE COUNT [3]: 12.9 x10E3/uL
LYMPHOCYTE [3]: 91.33%
MEAN CORPUSCULAR HEMOGLOBIN [3]: 24.53 pg
MEAN CORPUSCULAR HEMOGLOBIN CONCENTRATION [3]: 38.97 G/DL
MEAN CORPUSCULAR VOLUME [3]: 62.9 fL
MONOCYTE [3]: 1%
NEUTROPHIL [3]: 7.33%
NUCLEATED RED BLOOD CELLS [3]: 0 /100WBC
PLATELET COUNT [3]: 1229.33 x10E3/uL
ALANINE AMINOTRANSFERASE [3]: 41.67 u/L
ALBUMIN [3]: 4.13 G/DL
ALKALINE PHOSPHATASE [3]: 500 u/L
ASPARTATE AMINOTRANSFERASE [3]: 89.33 u/L
BLOOD UREA NITROGEN [3]: 17.67 mg/dL
CARBON DIOXIDE [3]: 23.67 mmol/L
CHLORIDE [3]: 103.67 MEQ/L
CHOLESTEROL [3]: 36 mg/dL
CREATINE PHOSPHOKINASE [3]: 654.33 u/L
CREATININE [3]: 0.23 mg/dL
GLUCOSE [3]: 162 mg/dL
LACTATE DEHYDROGENASE [3]: 616.67 u/L
LIPASE [3]: 10.67 u/L
PHOSPHORUS [3]: 11.97 mg/dL
POTASSIUM [3]: 6.03 MEQ/L
SODIUM [3]: 144.8 MEQ/L
TOTAL BILIRUBIN [3]: 0.17 mg/dL
TOTAL PROTEIN [3]: 6 G/DL
URIC ACID [3]: 1.6 mg/dL
ABSOLUTE BASOPHIL [4]: 0 CELLS/uL
ABSOLUTE EOSINOPHIL [4]: 0 CELLS/uL
ABSOLUTE LYMPHOCYTE [4]: 12894 CELLS/uL
ABSOLUTE MONOCYTE [4]: 233.33 CELLS/uL
ABSOLUTE SEGMENTED NEUTROPHIL [4]: 972.67 CELLS/uL
BASOPHIL [4]: 0%
EOSINOPHIL [4]: 0%
ERYTHROCYTE COUNT [4]: 5.98 x10E6/uL
HEMATOCRIT [4]: 36.97%
HEMOGLOBIN [4]: 13.8 G/DL
LEUKOCYTE COUNT [4]: 14.1 x10E3/uL
LYMPHOCYTE [4]: 91.33%
MEAN CORPUSCULAR HEMOGLOBIN [4]: 23.07 pg
MEAN CORPUSCULAR HEMOGLOBIN CONCENTRATION [4]: 37.33 G/DL
MEAN CORPUSCULAR VOLUME [4]: 61.87 fL
MONOCYTE [4]: 1.67%
NEUTROPHIL [4]: 7%
NUCLEATED RED BLOOD CELLS [4]: 0 /100WBC
PLATELET COUNT [4]: 1068.67 x10E3/uL
ALANINE AMINOTRANSFERASE [4]: 43.67 u/L
ALBUMIN [4]: 4.23 G/DL
ALKALINE PHOSPHATASE [4]: 477 u/L
ASPARTATE AMINOTRANSFERASE [4]: 80.33 u/L
BLOOD UREA NITROGEN [4]: 17.33 mg/dL
CARBON DIOXIDE [4]: 26.33 mmol/L
CHLORIDE [4]: 101.67 MEQ/L
CHOLESTEROL [4]: 36.33 mg/dL
CREATINE PHOSPHOKINASE [4]: 414 u/L
CREATININE [4]: 0.19 mg/dL
GLUCOSE [4]: 148.33 mg/dL
LACTATE DEHYDROGENASE [4]: 577 u/L
LIPASE [4]: 8.33 u/L
PHOSPHORUS [4]: 10.9 mg/dL
POTASSIUM [4]: 6.26 MEQ/L
SODIUM [4]: 144.2 MEQ/L
TOTAL BILIRUBIN [4]: 0.23 mg/dL
TOTAL PROTEIN [4]: 6.3 G/DL
URIC ACID [4]: 1.63 mg/dL
